Residues, ends and D or L forms follow the SMILES beside them. *: point of attachment. StBu = CC(C)(C)S*

In one data set the test system is mice. To be noted: arginine-rich versus nonarginine peptides; cited from earlier work.
The subject of data set [1] is Female Rag2−/− mice. Conditions: mouse, in vivo, iv.
The test system of data set [2] is Female Rag2−/− mice. As to the kind of experiment: Assessment of kidney function. Type of data set: in vivo. Conditions: one week after injection, still within the reference range.
Data set [3] relates to Female Rag2−/− mice. As to the kind of experiment: In vivo toxicity: animal survival after intravenous injection. Conditions: i.v.; all of the doses tested (0.0125-0.4 mmol/kg).
In data set [4] the test system is Female Rag2−/− mice. Conditions: mouse, in vivo, iv. The source holds these as a separate data set.

`NCCCC(=O)O` [GABA]: in the data set with mice, the “survival of mice exposed to the peptide” value is on record as “mice survived”.

For the molecule `CC(=O)N[C@@H](CCCNC(=N)N)C(=O)N[C@@H](CCCNC(=N)N)C(=O)N[C@@H](C)C(=O)N[C@@H](C)C(=O)N[C@@H](CC(N)=O)C(=O)N[C@@H](CSSC(C)(C)C)C(=O)N[C@@H](CCCCN)C(=O)O` [R2] (Ac-RRAANC(StBu)K-OH), the “liver enzyme levels (AST, ALT, ALP) in blood plasma” value (“liver enzyme levels (AST, ALT, ALP)” below) with Female Rag2−/− mice [1] is on record as “no significant differences”.

Consider `CC(=O)N[C@@H](CCCNC(=N)N)C(=O)N[C@@H](CCCNC(=N)N)C(=O)N[C@@H](CCCNC(=N)N)C(=O)N[C@@H](C)C(=O)N[C@@H](C)C(=O)N[C@@H](CC(N)=O)C(=O)N[C@@H](CSSC(C)(C)C)C(=O)N[C@@H](CCCCN)C(=O)O` [R3] (Ac-RRRAANC(StBu)K-OH), for which, in the data set with Female Rag2−/− mice [1], the “liver enzyme levels (AST, ALT, ALP)” value is “no significant differences”. In addition, in the data set with Female Rag2−/− mice [2] (0.1 mmol/kg i.v.), the “creatinine levels in urine” value is on record as “observable increase” and the “total protein levels in urine” value is given as “observable increase”.

As for ACSSSPSKHCG [TD], the “survival of mice exposed to the peptide” value in the data set on mice is “mice survived”.

As to RAANCK [R1], the “liver enzyme levels (AST, ALT, ALP)” value in the data set with Female Rag2−/− mice [1] was “no significant differences”. The “observable toxicity in animals” value in the data set with Female Rag2−/− mice [3] is “did not exhibit any observable toxicity”.

RRRRAANCK [R4]: in the data set with Female Rag2−/− mice [4], the WBC counts result is recorded as “significant increase” and the platelet counts result is reported as “significant decrease”. Besides, the “AST levels in blood plasma” value with Female Rag2−/− mice [1] is “significant increase”. In addition, in the data set on Female Rag2−/− mice [2] (0.5 mmol/kg i.v.), the “creatinine levels in urine” value is “observable increase” and the “total protein levels in urine” value was “observable increase”.

Turning to RRRRRAANCK [R5], in the data set on Female Rag2−/− mice [4], the WBC counts entry is on record as “significant increase” and the platelet counts result is “significant decrease”. In the data set with Female Rag2−/− mice [1], the “ALP levels in blood plasma” value is “increased”, the “ALT levels in blood plasma” value is listed as “increased” and the “AST levels in blood plasma” value is “significant increase”.

Consider RRRRRRAANCK [R6], for which the WBC counts result with Female Rag2−/− mice [4] is “significant increase”. Moreover, the “liver enzyme levels (AST, ALT, ALP)” value in the data set on Female Rag2−/− mice [1] is reported as “no significant differences”.

(Values after article PMC11362383 (ACS applied materials & interfaces, 2024).)
